Laboratory results published in patent US7205299B2, “Indole derivatives having an apoptosis-inducing effect” (Zentaris GmbH, priority 2003, dated 2007).
≈ marks a conversion by molar mass, not a printed value.

Assays:
[1] = system: acute myeloid leukemia cell line LT12; assay: XTT proliferation assay, LT12; assay type: cell-based; details: Rattus norvegicus
Description: (§1) For further characterization, substances 1, 2, 4 and 11 were investigated with regard to their effect on mulitdrug-resistance cell lines as compared with that on nonresistant wild-type cell lines.
(§2) The cell lines which were investigated are the murine cell line L1210, the acute myeloid leukemia cell line LT12 and the resistant lines L1210/mdr and LT12/mdr. The murine cell line P388 (methylcholanthrene-induced lymphoid neoplasm) and doxorubicin-resistant P388 were also included as test systems.
(§3) The test results are summarized in Table 2 below: • XTT proliferation assay, EC50 in μg/ml

[2] = system: resistant line L1210/mdr (L1210VCR); assay: XTT proliferation assay, L1210VCR; assay type: cell-based, murine; details: Mus musculus
Description: as §1, §2, §3

[3] = molecular target: human DNA topoisomerase II (Homo sapiens, UniProt P11388); assay: kDNA assay for testing topoisomerase II activity; assay type: biochemical; details: compound 1 at 100, 31.6 and 10 μM; reference compounds 100 μM
human DNA topoisomerase II, sequence (P11388 whole entry): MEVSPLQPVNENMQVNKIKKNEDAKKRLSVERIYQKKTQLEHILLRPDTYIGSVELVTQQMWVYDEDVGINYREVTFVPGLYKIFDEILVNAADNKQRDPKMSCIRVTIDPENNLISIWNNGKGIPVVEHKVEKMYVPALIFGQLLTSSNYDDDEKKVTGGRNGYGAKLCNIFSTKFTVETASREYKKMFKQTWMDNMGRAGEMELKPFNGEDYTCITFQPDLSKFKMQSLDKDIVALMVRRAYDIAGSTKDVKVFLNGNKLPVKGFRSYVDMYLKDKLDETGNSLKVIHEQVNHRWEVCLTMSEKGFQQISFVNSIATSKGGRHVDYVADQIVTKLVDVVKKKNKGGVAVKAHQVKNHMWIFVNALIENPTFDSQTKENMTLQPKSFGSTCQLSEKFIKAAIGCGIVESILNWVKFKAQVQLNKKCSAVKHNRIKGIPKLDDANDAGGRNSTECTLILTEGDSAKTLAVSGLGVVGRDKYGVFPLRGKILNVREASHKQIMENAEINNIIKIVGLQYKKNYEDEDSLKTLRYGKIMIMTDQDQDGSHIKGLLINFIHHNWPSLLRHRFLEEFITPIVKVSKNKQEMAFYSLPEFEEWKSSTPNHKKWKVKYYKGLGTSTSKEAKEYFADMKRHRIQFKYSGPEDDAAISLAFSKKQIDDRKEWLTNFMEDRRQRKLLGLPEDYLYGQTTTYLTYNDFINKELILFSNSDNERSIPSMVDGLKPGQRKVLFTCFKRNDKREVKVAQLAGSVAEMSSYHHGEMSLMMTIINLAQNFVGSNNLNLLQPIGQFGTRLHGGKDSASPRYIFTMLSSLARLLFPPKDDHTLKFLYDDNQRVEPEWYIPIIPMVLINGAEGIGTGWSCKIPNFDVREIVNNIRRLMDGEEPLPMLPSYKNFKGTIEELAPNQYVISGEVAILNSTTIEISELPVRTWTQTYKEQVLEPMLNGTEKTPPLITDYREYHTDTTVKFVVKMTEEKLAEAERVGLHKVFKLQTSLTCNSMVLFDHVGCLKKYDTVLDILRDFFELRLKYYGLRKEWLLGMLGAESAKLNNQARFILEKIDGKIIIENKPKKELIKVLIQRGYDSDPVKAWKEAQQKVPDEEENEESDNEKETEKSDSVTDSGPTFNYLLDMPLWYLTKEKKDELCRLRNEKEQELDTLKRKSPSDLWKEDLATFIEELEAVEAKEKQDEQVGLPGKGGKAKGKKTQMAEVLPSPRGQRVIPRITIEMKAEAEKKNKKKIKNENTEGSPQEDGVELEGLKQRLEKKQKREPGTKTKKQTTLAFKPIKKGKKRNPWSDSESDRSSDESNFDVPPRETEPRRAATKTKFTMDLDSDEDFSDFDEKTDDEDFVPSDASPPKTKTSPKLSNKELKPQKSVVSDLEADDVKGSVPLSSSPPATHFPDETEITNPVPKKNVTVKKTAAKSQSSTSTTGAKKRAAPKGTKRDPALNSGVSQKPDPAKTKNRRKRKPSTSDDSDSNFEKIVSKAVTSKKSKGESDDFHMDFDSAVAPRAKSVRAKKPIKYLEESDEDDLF
Experimental: In this assay, which was described by P. Arimondo (Anti-Cancer Drug Design 2000, 15(6), 413–421), kDNA is treated with human DNA topoisomerase II in the absence or presence of the test compounds. In the assay, compound 1 according to the invention was tested at three different concentrations (100, 31.6 and 10 μM). A positive control and the reference compounds m-amsacrine (m-amsa), paclitaxel (Taxol) and vincristine, with the concentration in each case being 100 μM, were used for comparison.
2 μL of 10× assay buffer, 1 μL of kDNA (200 ng), 0.5 μL of human topoisomerase II (1 unit) and 15.5 μL of H2O are added by pipette to 1 μL of initially introduced test substance (20 times concentrated in 100% DMSO) and the reagents are mixed.
The reaction assay samples are placed in a heating block which has been preheated to 37° C. and incubated at 37° C. for 10 min. The incubation is stopped after adding 4 μL of 5× Stop buffer and the substance is subsequently extracted with CIA. After that, 20 μL of the supernatant are loaded onto a 1% agarose gel containing 0.25 μg of ethidium bromide/mL and separated at 100 V for 1 h. Finally, the gel is photographed under UV excitation (see FIG. 1). The inhibition of the decatenation of kDNA is quantified using the GelPro® Analyzer Software (see FIG. 2).

murine cell line P388 = assay: XTT proliferation assay, P388; assay type: cell-based; details: Mus musculus
Description: as §1, §2, §3

KB/HeLa cells = assay: Cell cycle analysis (G2/M arrest); assay type: cell-based; details: Homo sapiens, 24 hours, 37° C., read-out: EC50 (50% of cells in G2/M)
Experimental: For the cell cycle analysis, KB/HeLa cells were treated with different concentrations of the test substances (0.1–1000 nM) at 37° C. for 24 hours.
The percentage of cells arrested in the G2/M phase of the cell cycle after having been treated with reference substances or selected test substances is shown in Table 4 below. The results were analyzed using special analytical software (ModFit™).

resistant line LT12/mdr = assay: XTT proliferation assay, LT12/mdr; assay type: cell-based; details: Rattus norvegicus, LT12mdr
Description: as §1, §2, §3

murine cell line L1210 = assay: XTT proliferation assay, L1210; assay type: cell-based; details: Mus musculus
Description: as §1, §2, §3

human topoisomerase II = human topoisomerase II (Homo sapiens, UniProt P11388); assay: pRYG relaxation assay for testing topoisomerase II activity; assay type: biochemical; details: compound 1 at 100, 31.6 and 10 μM; reference compounds 316 and 100 μM
human topoisomerase II, sequence (P11388 whole entry): as above
Experimental: In the assay, the compound 1 according to the invention was tested at three different concentrations (100, 31.6 and 10 μM). The reference compounds m-amsacrine, paclitaxel (Taxol) and vincristine were used, at concentrations of 316 and 100 μM, for comparison.
2 μL of 10× assay buffer, 0.5 μL of pRYG DNA (125 ng), 0.5 μL of human topoisomerase II (1 unit) and 16 μL of H2O are added by pipette to 1 μL of initially introduced test substance (20 times concentrated in 100% DMSO) and the reagents are mixed. The reaction assay samples are placed in a heating block which has been preheated to 37° C. and incubated at 37° C. for 30 min. The incubation is stopped after adding 4 μL of 5× Stop buffer. After that, 10 μL of the assay sample are loaded onto a 1.2% agarose gel containing 0.25 μg of ethidium bromide/mL and separated at 100 V for 2.5 h. Finally, the gel is photographed under UV excitation (see FIG. 3). The inhibition of pRYG relaxation is quantified using the GelPro® Analyzer Software (see FIG. 4).

[4] = system: doxorubicin-resistant P388; assay: XTT proliferation assay, P388ADR; assay type: cell-based, murine; details: Mus musculus
Description: as §1, §2, §3

[5] = system: human cervical carcinoma cell line KB/HeLa; assay: XTT proliferation assay, KB/HeLa; assay type: cell-based
Description: (§4) The antiproliferative activity of substances 1, 2, 4, 9, 11, 12, 13 and 15 was investigated in a proliferation test performed on established tumor cell lines (D. A. Scuderio et al. Cancer Res. 1988, 48, 4827–4833). The test which is used determines the cellular dehydrogenase activity and makes it possible to determine cell viability and determine cell number indirectly. The cell lines which are used are the human cervical carcinoma cell line KB/HeLa (ATCC CCL17), the ovarian adenocarcinoma cell line SKOV-3 (ATCC HTB77), the human glioblastoma cell line SF-268 (NCI 503138) and the lung carcinoma cell line NCI-H460 (NCI 503473).

[6] = system: lung carcinoma cell line NCI-H460; assay: XTT proliferation assay, NCI-H460; assay type: cell-based, human
Description: as §4

bovine tubulin = bovine tubulin (Bos taurus, UniProt P81947+Q6B856); assay: Inhibition of tubulin polymerization; assay type: biochemical; details: summary of Table 3
bovine tubulin, sequence (P81947 whole entry): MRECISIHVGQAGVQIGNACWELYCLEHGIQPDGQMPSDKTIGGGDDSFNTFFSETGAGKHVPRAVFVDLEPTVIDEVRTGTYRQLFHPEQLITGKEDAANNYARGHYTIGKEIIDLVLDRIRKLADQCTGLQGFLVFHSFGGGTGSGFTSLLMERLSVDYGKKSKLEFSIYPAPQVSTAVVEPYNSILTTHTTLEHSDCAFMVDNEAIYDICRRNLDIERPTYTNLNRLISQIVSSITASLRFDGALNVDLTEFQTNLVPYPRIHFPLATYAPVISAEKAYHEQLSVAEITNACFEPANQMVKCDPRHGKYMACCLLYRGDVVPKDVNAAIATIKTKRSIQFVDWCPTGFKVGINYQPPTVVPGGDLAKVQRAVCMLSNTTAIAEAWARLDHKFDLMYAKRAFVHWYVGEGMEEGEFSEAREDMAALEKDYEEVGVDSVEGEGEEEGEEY
bovine tubulin, sequence (Q6B856 whole entry): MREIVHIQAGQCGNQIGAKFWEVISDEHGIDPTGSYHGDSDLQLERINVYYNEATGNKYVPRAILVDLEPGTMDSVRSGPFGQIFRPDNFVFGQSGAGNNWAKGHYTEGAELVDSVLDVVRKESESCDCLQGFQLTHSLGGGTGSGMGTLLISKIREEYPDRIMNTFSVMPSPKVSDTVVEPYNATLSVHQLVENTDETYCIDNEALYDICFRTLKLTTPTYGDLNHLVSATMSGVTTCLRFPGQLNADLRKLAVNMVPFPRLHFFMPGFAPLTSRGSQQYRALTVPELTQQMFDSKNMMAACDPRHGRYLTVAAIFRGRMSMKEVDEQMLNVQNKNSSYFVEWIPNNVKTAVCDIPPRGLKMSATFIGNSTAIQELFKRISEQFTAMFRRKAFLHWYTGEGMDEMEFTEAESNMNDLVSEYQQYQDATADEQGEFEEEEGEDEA
Experimental: Substances 1, 4, 9, 11, 12, 13 and 15 were tested for their ability to inhibit the polymerization of bovine tubulin in an in-vitro test (D. M. Bollag et al. Cancer Res. 1995, 55, 2325–2333). This test uses-tubulin which has been purified by cycles of polymerization and depolymerization and which is caused to polymerize by adding GTP and heating it. Table 3 gives the EC50 values causing inhibition of the polymerization of tubulin containing 30% associated proteins (MPAs).

[7] = system: human glioblastoma cell line SF-268; assay: XTT proliferation assay, SF-268; assay type: cell-based
Description: as §4

[8] = system: ovarian adenocarcinoma cell line SKOV-3; assay: XTT proliferation assay, SKOV-3; assay type: cell-based, human
Description: as §4

| Structure (SMILES) | EC50 [1] [µg/mL] | EC50 [2] [µg/mL] | inhibition of topoisomerase II, kDNA decatenation [3] | EC50 (murine cell line P388) [µg/mL] | EC50 (KB/HeLa cells) [nM] | EC50 (resistant line LT12/mdr) [µg/mL] | EC50 (murine cell line L1210) [µg/mL] | inhibition of topoisomerase II, pRYG DNA relaxation (human topoisomerase II) | EC50 [4] [µg/mL] | XTT proliferation assay, EC50, KB/HeLa ([5]; KB/HeLa) [µg/mL] | XTT proliferation assay, EC50, NCI-H460 [6] [µg/mL] | inhibitory effect on tubulin polymerization (in words) (bovine tubulin) | XTT proliferation assay, EC50, SF-268 [7] [µg/mL] | XTT proliferation assay, EC50, SKOV3 ([8]; SKOV3) [µg/mL] | EC50 ([5]; Homo sapiens, HeLa) [µg/mL] | EC50 ([6]; Homo sapiens) [µg/mL] | EC50 ([7]; Homo sapiens) [µg/mL] | EC50 ([8]; Homo sapiens, SK-OV-3, read-out: XTT proliferation assay, EC50, SKOV3) [µg/mL] |
| --- | --- | --- | --- | --- | --- | --- | --- | --- | --- | --- | --- | --- | --- | --- | --- | --- | --- | --- |
| CC(=O)O[C@H]1C(=O)[C@@]2(C)[C@H]([C@H](OC(=O)c3ccccc3)[C@]3(O)C[C@H](OC(=O)[C@H](O)[C@@H](NC(=O)c4ccccc4)c4ccccc4)C(C)=C1C3(C)C)[C@]1(OC(C)=O)CO[C@@H]1C[C@@H]2O [Paclitaxel, paclitaxel] | 0.005 (≈ 0.00586 µM) | > 3.16 | neither paclitaxel nor vincristine was observed to have any inhibitory effects | 0.035 (≈ 0.041 µM) | 26.9 | 0.34 (≈ 0.398 µM) | 0.048 (≈ 0.0562 µM) | neither paclitaxel nor vincristine was observed to have any inhibitory effects | > 3.16 |  |  |  |  |  |  |  |  |  |
| O=C(Nc1cccc2cnccc12)C(=O)c1cn(Cc2ccc(Cl)cc2)c2ccccc12 [Compound 13, 2-[l-(4-chlorobenzyl)-1H-indol-3-yl]-N-isoquinolin-5-yl-2-oxoacetamide] |  |  |  |  |  |  |  |  |  | >3.16 | >3.16 | do not exert any effect | >3.16 | >3.16 |  |  |  |  |
| O=C(Nc1ccc2ncccc2c1)C(=S)c1cn(Cc2ccc(Cl)cc2)c2ccccc12 [Compound 11, 2-[1-(4-chlorobenzyl)-1H-indol-3-yl]-N-quinolin-6-yl-2-thioxoacetamide] | 0.023 (≈ 0.0504 µM) | 0.067 (≈ 0.147 µM) |  | 0.018 (≈ 0.0395 µM) | 41.8 | 0.054 (≈ 0.118 µM) | 0.052 (≈ 0.114 µM) |  | 0.051 (≈ 0.112 µM) |  |  | very potent inhibitory effect |  |  | 0.036 (≈ 0.079 µM) | 0.057 (≈ 0.125 µM) | 0.036 (≈ 0.079 µM) | 0.029 (≈ 0.0636 µM) |
